From the NIST ThermoML archive (doi:10.1021/je8008649)

Assay: mn = molality of the nth substance listed, in mol/kg
Conditions: 101 kPa, Liquid

NO.O=S(=O)(O)O [hydroxylammonium hydrogen sulfate] + O
Conditions	mass density, 283.15 K [kg/m3]	mass density, 288.15 K [kg/m3]	mass density, 293.15 K [kg/m3]	mass density, 298.15 K [kg/m3]	mass density, 303.15 K [kg/m3]	mass density, 308.15 K [kg/m3]	mass density, 313.15 K [kg/m3]	viscosity, 298.15 K [mPa·s]	viscosity, 303.15 K [mPa·s]	viscosity, 308.15 K [mPa·s]
m1 = 0.0075	1000.57	999.95	999.03	997.89	996.46	994.84	993	–	–	–
m1 = 0.0204	–	–	–	–	–	–	–	0.897	0.806	0.727
m1 = 0.038	1003.84	1003.18	1002.23	1001.03	999.59	997.95	996.09	–	–	–
m1 = 0.0473	–	–	–	–	–	–	–	0.909	0.814	0.736
m1 = 0.0702	1007.27	1006.56	1005.58	1004.34	1002.88	1001.17	999.12	0.914	0.821	0.741
m1 = 0.2199	1022.47	1021.57	1020.43	1019.05	1017.48	1015.7	1013.04	–	–	–
m1 = 0.2315	–	–	–	–	–	–	–	0.968	0.869	0.787
m1 = 0.3709	1036.87	1035.81	1034.52	1033.05	1031.38	1029.51	1027.24	1.019	0.912	0.823
m1 = 0.4314	1042.64	1041.22	1039.97	1038.36	1036.73	1034.77	1032.85	1.035	0.927	0.838
m1 = 0.5334	1051.59	1050.39	1048.98	1047.39	1045.61	1043.69	1041.6	1.069	0.961	0.867
m1 = 0.8069	1075.32	1073.9	1071.96	1070.2	1068.3	1066.3	1064.15	1.167	1.053	0.95
m1 = 0.9684	1088.31	1086.8	1085.12	1083.29	1081.32	1079.23	1076.98	–	–	–
m1 = 1.044	–	–	–	–	–	–	–	1.256	1.128	1.02
m1 = 1.165	1103.23	1101.58	1099.81	1097.89	1095.85	1093.7	1091.42	–	–	–
m1 = 1.324	–	–	–	–	–	–	–	1.369	1.237	1.112
m1 = 1.478	1126.68	1124.91	1123	1120.96	1118.82	1116.5	1113.63	–	–	–
m1 = 1.589	–	–	–	–	–	–	–	1.483	1.333	1.201
m1 = 1.851	1151.94	1149.99	1147.92	1145.49	1142.34	1141.16	1138.36	–	–	–
m1 = 1.915	–	–	–	–	–	–	–	1.631	1.463	1.319
m1 = 2.088	–	–	–	–	–	–	–	1.732	1.542	1.386
m1 = 2.461	1188.98	1186.87	1184.69	1182.41	1180.07	1177.64	1175.14	–	–	–
m1 = 2.847	–	–	–	–	–	–	–	2.123	1.887	1.702
m1 = 2.998	1218.05	1215.84	1213.55	1211.21	1208.79	1206.32	1203.99	–	–	–

N.N.O=S(=O)(O)O [ammonium sulfate] + O
m1 = 4.655
Conditions	mass density [kg/m3]	viscosity [mPa·s]
293.15 K	1217.66	–
298.15 K	1215.79	2.114
303.15 K	1213.89	1.944
308.15 K	1211.94	1.785
313.15 K	1209.97	–
